SMILES strings stand for the structures.

The target in this test is T1, α5β2γ2 subtype GABAAR (Homo sapiens, UniProt P18507+P31644).
T1 construct: expressed in transfected cells
T1 sequence (P31644 32-462): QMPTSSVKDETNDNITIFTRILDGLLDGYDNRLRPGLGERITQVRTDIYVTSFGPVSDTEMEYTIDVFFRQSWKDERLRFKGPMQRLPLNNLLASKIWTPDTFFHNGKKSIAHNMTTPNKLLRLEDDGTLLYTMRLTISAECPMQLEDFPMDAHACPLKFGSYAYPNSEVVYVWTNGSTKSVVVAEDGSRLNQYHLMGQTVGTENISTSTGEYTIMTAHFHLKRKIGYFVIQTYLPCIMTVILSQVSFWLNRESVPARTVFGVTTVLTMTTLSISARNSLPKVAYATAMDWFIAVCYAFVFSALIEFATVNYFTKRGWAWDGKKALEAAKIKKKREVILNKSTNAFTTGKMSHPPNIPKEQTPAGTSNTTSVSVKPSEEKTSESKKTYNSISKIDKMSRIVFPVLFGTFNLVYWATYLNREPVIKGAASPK
T1 sequence (P47870 25-512 partner limits assumed): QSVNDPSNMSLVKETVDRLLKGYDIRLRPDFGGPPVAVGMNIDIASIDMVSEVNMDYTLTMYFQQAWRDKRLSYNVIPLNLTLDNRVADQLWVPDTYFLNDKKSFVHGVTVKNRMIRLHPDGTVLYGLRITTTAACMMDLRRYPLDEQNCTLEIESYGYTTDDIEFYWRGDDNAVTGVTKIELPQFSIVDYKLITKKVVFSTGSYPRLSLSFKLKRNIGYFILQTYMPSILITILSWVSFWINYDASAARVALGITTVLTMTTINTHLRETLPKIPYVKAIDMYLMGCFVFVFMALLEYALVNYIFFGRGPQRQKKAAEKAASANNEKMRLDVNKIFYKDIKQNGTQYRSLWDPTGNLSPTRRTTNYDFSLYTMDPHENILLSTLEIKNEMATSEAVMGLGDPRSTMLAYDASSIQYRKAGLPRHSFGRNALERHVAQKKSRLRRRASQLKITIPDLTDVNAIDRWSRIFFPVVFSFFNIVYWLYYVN
T1 sequence (P18507 40-467 limits assumed): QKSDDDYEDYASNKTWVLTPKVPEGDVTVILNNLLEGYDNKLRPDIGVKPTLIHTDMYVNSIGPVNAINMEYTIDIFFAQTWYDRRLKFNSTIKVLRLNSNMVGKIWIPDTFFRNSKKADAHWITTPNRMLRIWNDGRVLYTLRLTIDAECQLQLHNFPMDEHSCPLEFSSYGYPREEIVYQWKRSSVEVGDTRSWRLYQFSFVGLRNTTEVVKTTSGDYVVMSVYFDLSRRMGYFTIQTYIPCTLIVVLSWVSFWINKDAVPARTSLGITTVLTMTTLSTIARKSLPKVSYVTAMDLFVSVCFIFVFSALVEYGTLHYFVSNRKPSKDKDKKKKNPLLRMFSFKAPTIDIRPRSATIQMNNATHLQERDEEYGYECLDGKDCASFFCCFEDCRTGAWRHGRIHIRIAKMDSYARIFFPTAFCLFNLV
Briefly: Positive allosteric modulator activity: potentiation of EC20 GABA current in oocytes. The following applies: read-out: GABA α5 Functional Data (potentiation), @ 100 nM, reported as ranges. It is filed as cell-based. The protocol: (B) Positive Allosteric Modulator Activity of Test Compounds on α5β2γ2 Subtype GABAAR
On day 1, 1 ng/32 nL of GABAA α5β2γ2 cDNA was injected into one oocyte. Test starts on day 2. The cDNA injected to the oocytes was a mix of alpha, beta and gamma, their ratio is 1:1:10 (by weight) and the total weight of the mixed 3 subunits to be injected in one oocyte was 1 ng in 32 nl volume. The injected oocytes can also be tested on day 3. In such case, the cDNA amount injected to the oocytes should be reduced by 20%.
Compounds of the present invention were tested using the following procedures.
• 1). 8 oocytes were placed in 8 chambers of OpusXpress and superfused with Modified Barth's Saline (MBS) at 3 mL/min. Glass electrodes back-filled with 3M KCl (0.5-3 megaohms) were used.
Control test (Diazepam or methyl 3,5-diphenylpyridazine-4-carboxylate) • 1). New oocytes was used to run new test. • 2). […] Oocytes were washed with MBS for 5-10 min. • 4). […] Itest was divided by IGABA to obtain potentiation (%). Test Compounds at Multiple Doses • 1). Repeat the above steps 1), 2) and 3) in the control test. • 2). […] Divide Itest by IGABA to obtain potentiation (%). • 3). Discard all tested oocytes, new oocytes were used and the above steps 1) and 2) were repeated to test second concentration of the same compound. Each oocyte was used for only one concentration test for a single test compound. The steps were repeated for other test compounds.
On to `C#Cc1ccc2c(c1)-c1nnc(COC)n1Cc1c(-c3nc(-c4ccccc4)co3)ncn1-2` [Compound 302], for which the activation at 0.1 µM was in the range of 5 to 20%. On to `FC(F)(F)COCc1nnc2n1Cc1c(C3=N[C@@H](c4ccccc4)CO3)ncn1-c1ccc(Cl)cc1-2` [Compound 304], for which the activation at 0.1 µM was 5 to 20%. With `CCOC(=O)c1ncn2c1Cn1c(COCC(F)(F)F)nnc1-c1cc(Cl)ccc1-2` [Compound 308], the activation at 0.1 µM was 5 to 20%. On to `Cc1ccccc1C#Cc1ncn2c1Cn1c(COC(C)C)nnc1-c1cc(Cl)ccc1-2` [Compound 310], for which the activation at 0.1 µM was 5 to 20%. As for `CCOCc1nnc2n1Cc1c(C#Cc3ccccc3C)ncn1-c1ccc(Cl)cc1-2` [Compound 311], the activation at 0.1 µM fell in the range of 5 to 20%.

With `FC(F)(F)COCc1nnc2n1Cc1c(-c3nc(-c4ccccc4)co3)ncn1-c1ccc(Cl)cc1-2` [Compound 313], the activation at 0.1 µM was in the range of 20 to 50%. `COCc1nnc2n1Cc1c(C3=N[C@@H](c4ccccc4F)CO3)ncn1-c1ccc(Cl)cc1-2` [Compound 319]: the activation at 0.1 µM was in the range of 20 to 50%.

As to `COCc1nnc2n1Cc1c(C3=N[C@@H](c4ccc(F)cc4)CO3)ncn1-c1ccc(Cl)cc1-2` [Compound 320], the activation at 0.1 µM is 20 to 50%. Consider `COCc1nnc2n1Cc1c(-c3nc(-c4ccccc4F)co3)ncn1-c1ccc(Cl)cc1-2` [Compound 323], for which the activation at 0.1 µM was 20 to 50%. Under `COCc1nnc2n1Cc1c(-c3nc(-c4ccc(F)cc4)co3)ncn1-c1ccc(Cl)cc1-2` [Compound 324] stands 20 to 50%. Under `CCOCc1nnc2n1Cc1c(C3=N[C@@H](c4ccc(F)cc4)CO3)ncn1-c1ccc(Cl)cc1-2` [Compound 325] stands 20 to 50%; under `CC(C)OCc1nnc2n1Cc1c(C3=N[C@@H](c4ccc(F)cc4)CO3)ncn1-c1ccc(Cl)cc1-2` [Compound 326], 20 to 50%; under `C#Cc1ncn2c1Cn1c(COC)nnc1-c1cc(OC)ccc1-2` [Compound 328, 5-ethynyl-15-methoxy-9-(methoxymethyl)-2,4,8,10,11-pentaazatetracyclo[11.4.0.0^2,^60.0^8,^12]heptadeca-1(17),3,5,9,11,13,15-heptaene], 5 to 20%.

As for `COCc1nnc2n1Cc1c(C3=N[C@@H](c4ccccc4C)CO3)ncn1-c1ccc(Cl)cc1-2` [Compound 330], the activation at 0.1 µM was in the range of 20 to 50%. For the compound `COCc1nnc2n1Cc1c(C3=N[C@@H](c4ccccc4OC)CO3)ncn1-c1ccc(Cl)cc1-2` [Compound 331], the activation at 0.1 µM fell in the range of 5 to 20%.

With `COCc1nnc2n1Cc1c(C3=N[C@@H](c4ccc(OC)cc4)CO3)ncn1-c1ccc(Cl)cc1-2` [Compound 332], the activation at 0.1 µM was in the range of 5 to 20%.

Turning to `COCc1nnc2n1Cc1c(C3=N[C@@H](c4cccc(OC)c4)CO3)ncn1-c1ccc(Cl)cc1-2` [Compound 333], the activation at 0.1 µM is 5 to 20%.

Consider `COCc1nnc2n1Cc1c(C3=N[C@@H](c4ccc(Cl)cc4)CO3)ncn1-c1ccc(Cl)cc1-2` [Compound 334], for which the activation at 0.1 µM fell in the range of 20 to 50%. Take `COCc1nnc2n1Cc1c(C3=N[C@@H](c4cc(F)ccc4F)CO3)ncn1-c1ccc(Cl)cc1-2` [Compound 335]: the activation at 0.1 µM lay within 5 to 20%. For `COCc1nnc2n1Cc1c(C3=N[C@@H](c4ccc(C(F)(F)F)cc4)CO3)ncn1-c1ccc(Cl)cc1-2` [Compound 337], the activation at 0.1 µM was in the range of 20 to 50%. The value for `CC#Cc1ncn2c1Cn1c(COC)nnc1-c1cc(Cl)ccc1-2` [Compound 339] was 20 to 50%; that for `COCc1nnc2n1Cc1c(C3=N[C@H](c4ccccc4)CO3)ncn1-c1ccc(OC)cc1-2` [Compound 340] was 20 to 50%. With `CCOCc1nnc2n1Cc1c(-c3ncco3)ncn1-c1ccc(Cl)cc1-2` [Compound 341], the activation at 0.1 µM lay in the range of 5 to 20%.

Turning to `COCc1nnc2n1Cc1c(C3=N[C@@H](c4ccccc4)CO3)ncn1-c1ccc(OC)cc1-2` [Compound 343], the activation at 0.1 µM lay in the range of 20 to 50%. Regarding `CCC#Cc1ncn2c1Cn1c(COC)nnc1-c1cc(Cl)ccc1-2` [Compound 345], the activation at 0.1 µM lay within 20 to 50%. In the case of `COCc1nnc2n1Cc1c(C#CCc3ccccc3)ncn1-c1ccc(Cl)cc1-2` [Compound 346], the activation at 0.1 µM lay in the range of 20 to 50%.

Turning to `Clc1ccc2c(c1)-c1nnc(COc3ccccc3)n1Cc1c(-c3ncco3)ncn1-2` [Compound 349], the activation at 0.1 µM lay within 5 to 20%.

Regarding `Clc1ccc2c(c1)-c1nnc(COCc3ccccc3)n1Cc1c(-c3ncco3)ncn1-2` [Compound 350], the activation at 0.1 µM is above 50%. With `C#Cc1ncn2c1Cn1c(COCc3ccccc3)nnc1-c1cc(Cl)ccc1-2` [Compound 351], the activation at 0.1 µM lay within 20 to 50%. With `C#Cc1ncn2c1Cn1c(COc3ccccc3F)nnc1-c1cc(Cl)ccc1-2` [Compound 353, 15-chloro-5-ethynyl-9-(2-fluorophenoxymethyl)-2,4,8,10,11-pentaazatetracyclo[11.4.0.0^2,^60.0^8,^12]heptadeca-1(17),3,5,9,11,13,15-heptaene], the activation at 0.1 µM was above 50%. With `CC#Cc1ncn2c1Cn1c(COc3ccccc3F)nnc1-c1cc(Cl)ccc1-2` [Compound 354], the activation at 0.1 µM was in the range of 20 to 50%. The value for `Fc1ccccc1OCc1nnc2n1Cc1c(-c3ncco3)ncn1-c1ccc(Cl)cc1-2` [Compound 355] was 20 to 50%; that for `C#Cc1ncn2c1Cc1cnnn1-c1cc(Cl)ccc1-2` [Compound 356] was above 50%; that for `Clc1ccc2c(c1)-n1nncc1Cc1c(C3=N[C@@H](c4ccccc4)CO3)ncn1-2` [Compound 357] was 20 to 50%. For `Clc1ccc2c(c1)-n1nncc1Cc1c(C3=N[C@H](c4ccccc4)CO3)ncn1-2` [Compound 358], the activation at 0.1 µM fell in the range of 20 to 50%.

With `Fc1ccc([C@H]2COC(c3ncn4c3Cc3cnnn3-c3cc(Cl)ccc3-4)=N2)cc1` [Compound 359], the activation at 0.1 µM was in the range of 5 to 20%. Under `Fc1ccccc1[C@H]1COC(c2ncn3c2Cc2cnnn2-c2cc(Cl)ccc2-3)=N1` [Compound 360] stands 20 to 50%; under `Clc1ccc([C@H]2COC(c3ncn4c3Cc3cnnn3-c3cc(Cl)ccc3-4)=N2)cc1` [Compound 361], 20 to 50%; under `FC(F)(F)c1ccc([C@H]2COC(c3ncn4c3Cc3cnnn3-c3cc(Cl)ccc3-4)=N2)cc1` [Compound 362], 20 to 50%. Turning to `COc1ccc2c(c1)-n1nncc1Cc1c(C3=N[C@@H](c4ccc(F)cc4)CO3)ncn1-2` [Compound 367], the activation at 0.1 µM was 5 to 20%.

In the case of `COc1ccc2c(c1)-n1nncc1Cc1c(C3=N[C@@H](c4ccc(Cl)cc4)CO3)ncn1-2` [Compound 368], the activation at 0.1 µM is 5 to 20%.

Take `CC(C)c1coc(-c2ncn3c2Cc2cnnn2-c2cc(Cl)ccc2-3)n1` [Compound 387]: the activation at 0.1 µM lay in the range of 20 to 50%.

With `Clc1ccc2c(c1)-n1nncc1Cc1c(C#Cc3ccccc3)ncn1-2` [Compound 395], the activation at 0.1 µM lay in the range of 5 to 20%. Take `Cc1ccccc1C#Cc1ncn2c1Cc1cnnn1-c1cc(Cl)ccc1-2` [Compound 396]: the activation at 0.1 µM was in the range of 5 to 20%. As to `COc1ccc(C#Cc2ncn3c2Cc2cnnn2-c2cc(Cl)ccc2-3)cc1` [Compound 397], the activation at 0.1 µM was 20 to 50%.

Values taken from patent US12528819B2 (priority 2016, dated 2026).
